Assay results published in patent US20120270251A1, “INHIBITION OF THE ACTIVITY OF KINASE AND SYNTHETASE ENZYMES” (CSIR, priority 2009, published 2012).

Target: Mycobacterium tuberculosis shikimate kinase (Mycobacterium tuberculosis, UniProt P9WPY3)
Experiment: Shikimate kinase steady-state kinetics, ATP vs C8D-ATP
Type: biochemical
Source text: Hexokinase from Saccharomyces cerevisiae Type F-300 (Sigma, H4502) and Acetate kinase from E. coli (Sigma, A7437) were purchased. The human adenylate kinase (AK1) gene in vector pLIG-SC1 was obtained from the Structural Genomics Consortium (code AK1A). The His-tagged AK1 was produced in Escherichia coli Origami (DE3) and purified using the Bio-Rad Profinia Purification System. […] The Mycobacterium tuberculosis shikimate kinase gene in pET15b (Novagen) was obtained from the group of Chris Abell, Cambridge University, UK. The his-tagged MtSK was produced in E. coli BL21 (DE3) and purified using the Bio-Rad Profinia Purification System. The pure protein was dialysed against 50 mM Tris (pH 7.5) and 1,000 mM NaCl. Adenylylated (GS12) and deadenylylated (GS0) glutamine synthetase were prepared as outlined below.
The final volumes were 100 μl, and the reactions were incubated at 37° C. for 20 minutes, before being terminated by the addition of 5 μl 200 mM EDTA.
The results are reflected in FIGS. 19 to 25. […] The best-fit to the data was obtained for the specified kinetic model using the non-linear regression algorithms as outlined using the GraphPad Prism® 5 software. […] These response curves were then used to define the KIE by the conventional estimation of KIE from KIE=vH/vD. The KIED was also determined using the following function: […]

[1] = tested model: Allosteric sigmoidal

Chain of Mycobacterium tuberculosis shikimate kinase (P9WPY3 whole entry): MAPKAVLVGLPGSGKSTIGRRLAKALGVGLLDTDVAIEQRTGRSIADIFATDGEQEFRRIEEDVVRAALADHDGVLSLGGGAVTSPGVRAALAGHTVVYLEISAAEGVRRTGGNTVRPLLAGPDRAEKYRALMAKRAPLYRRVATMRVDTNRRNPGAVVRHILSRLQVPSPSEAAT

Row | SMILES | KIEvmax (KIE at maximum enzyme activity) | fit to kinetic model [1] | fit to kinetic model (tested model: Michaelis-Menton)
1 | Nc1ncnc2c1ncn2[C@@H]1O[C@H](COP(=O)(O)OP(=O)(O)OP(=O)(O)O)[C@@H](O)[C@H]1O [C8D-ATP] | 1 | Allosteric sigmoidal | Fit ambiguous
2 | Nc1ncnc2c1ncn2[C@@H]1O[C@H](COP(=O)(O)OP(=O)(O)OP(=O)(O)O)[C@@H](O)[C@H]1O [ATP, adenosine triphosphate, reference compound] | – | Allosteric sigmoidal | Fit ambiguous
